Our source for the TGI and GI50 values is PubChem BioAssay (NCI).

Test systems include 786-0 renal; CAKI-1 renal; DU-145 prostate; EKVX NSCLC; K-562 leukemia; NCI-H226 lung; NCI-H460 lung; PC-3 prostate; T-47D breast; U251 CNS.
Common to all, as to assay: growth of human tumour cells (NCI), 48 h

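1) Cells in 96-well plates. 2) Compound, 48 h, 5 concentrations. 3) Linear interpolation between surrounding doses. 4) Unreached endpoint = highest concentration. GI50: concentration for 50% inhibition of growth. Definition used: TGI = concentration required for complete inhibition of growth.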 Where only a bound is given, the exact number is not on record here.

Regarding `N#CC1=C(N)OC2=C(CCCc3ccc([N+](=O)[O-])cc32)C1c1ccc(Cl)cc1` (stereo not drawn), the TGI is 23.9 µM in the experiment on 786-0 renal; greater than 100 µM in the experiment on CAKI-1 renal; 63.2 µM in the experiment on DU-145 prostate; 71.7 µM in the experiment on EKVX NSCLC; greater than 100 µM in the experiment on K-562 leukemia; 76.3 µM in the experiment with NCI-H226 lung. In addition, the TGI with NCI-H460 lung was 15.7 µM; in the experiment with PC-3 prostate, greater than 100 µM; in the experiment with T-47D breast, 53.9 µM; in the experiment with U251 CNS, 28 µM.

As to `C(/C=C(\Nc1ccccc1)c1ccc2ccccc2c1)=Nc1ccccc1`, the TGI was 8.9 µM in the experiment on 786-0 renal; 7.22 µM in the experiment with CAKI-1 renal; 6.29 µM in the experiment on DU-145 prostate; 4.22 µM in the experiment with K-562 leukemia; 5.64 µM in the experiment with NCI-H226 lung; 11.9 µM in the experiment with NCI-H460 lung. The results for the TGI in the experiment with PC-3 prostate, in the experiment on T-47D breast and in the experiment with U251 CNS were 11.8 µM, 12.9 µM and 8.66 µM, respectively.

As to `CC(C)C1OC(=O)C(Cc2ccccc2)N(C)C(=O)C(C(C)C)OC(=O)C(Cc2ccccc2)N(C)C(=O)C(C(C)C)OC(=O)C(Cc2ccccc2)N(C)C1=O` (stereo not drawn), the TGI in the experiment with 786-0 renal came out at 2.5 µM; in the experiment on CAKI-1 renal, 2.46 µM; with DU-145 prostate, 3.03 µM; in the experiment with EKVX NSCLC it was 2.41 µM; in the experiment on K-562 leukemia, 3.52 µM; in the experiment with NCI-H226 lung it was 2.72 µM. Moreover, the TGI in the experiment on NCI-H460 lung was 2.44 µM; in the experiment on PC-3 prostate, 1.91 µM; in the experiment on T-47D breast it was 3.25 µM; in the experiment with U251 CNS, 1.77 µM.

For `NC1=Nc2ncccc2C(=O)NN1`, the TGI in the experiment with 786-0 renal, in the experiment on DU-145 prostate, in the experiment on EKVX NSCLC, with K-562 leukemia, in the experiment with NCI-H226 lung and with NCI-H460 lung was greater than 10 µM throughout. Besides, the TGI in the experiment with PC-3 prostate, with T-47D breast and in the experiment on U251 CNS was greater than 10 µM throughout.

As for `CC[C@@]1(O)C(=O)OCc2c1cc1n(c2=O)Cc2c-1nc1ccc(N)cc1c2CC[Si](C)(C)C`, the TGI in the experiment with 786-0 renal is less than 0.0276 µM; in the experiment with DU-145 prostate it was 1.68 µM; in the experiment with EKVX NSCLC, 3.23 µM; with K-562 leukemia, greater than 38.2 µM; with NCI-H226 lung, less than 0.01 µM; in the experiment with NCI-H460 lung, less than 0.013 µM. For the same compound, the TGI with PC-3 prostate was 13.7 µM; in the experiment on T-47D breast it was 20.6 µM; in the experiment on U251 CNS, 0.543 µM.

For the compound `O=C1c2ccccc2CC12Cc1ccc3c(c1C2=O)CCCC3` (stereo not drawn), the TGI with 786-0 renal, with DU-145 prostate, in the experiment with EKVX NSCLC, in the experiment on K-562 leukemia, in the experiment on NCI-H226 lung and in the experiment on NCI-H460 lung was greater than 100 µM in each case. The TGI in the experiment with PC-3 prostate is greater than 100 µM; in the experiment with T-47D breast, 9.59 µM; with U251 CNS, greater than 100 µM.

As to `CCOC(=O)c1c(NS(=O)(=O)c2ccccc2)sc2c1CCCC2`, the TGI with 786-0 renal, in the experiment with CAKI-1 renal, in the experiment on DU-145 prostate, with EKVX NSCLC, in the experiment on K-562 leukemia and in the experiment with NCI-H226 lung was greater than 100 µM throughout. For the same compound, the TGI with NCI-H460 lung, in the experiment on PC-3 prostate and in the experiment with T-47D breast was greater than 100 µM in each case.

On to `O=C(c1ccccc1)c1nn(-c2cccc(Cl)c2)c2nc3nc(-c4ccccc4)cc(=O)n3nc12`, for which the GI50 in the experiment on CAKI-1 renal, in the experiment with DU-145 prostate, in the experiment with EKVX NSCLC, in the experiment on K-562 leukemia, with NCI-H226 lung and with NCI-H460 lung was greater than 25 µM in each case. The GI50 in the experiment on PC-3 prostate, in the experiment on T-47D breast and with U251 CNS was greater than 25 µM each time. Moreover, the TGI in the experiment on CAKI-1 renal, in the experiment with DU-145 prostate, with EKVX NSCLC, in the experiment with K-562 leukemia, with NCI-H226 lung and in the experiment on NCI-H460 lung was greater than 25 µM each time. Besides, the TGI with PC-3 prostate, with T-47D breast and in the experiment on U251 CNS was greater than 25 µM each time.

As to `Cc1cccc(NC(=S)NNC(=O)c2cc(-c3ccccc3)nc3ccccc23)c1`, the TGI in the experiment with 786-0 renal is 85.1 µM; in the experiment with CAKI-1 renal, 72.4 µM; in the experiment with DU-145 prostate it was greater than 100 µM; in the experiment on K-562 leukemia it was greater than 100 µM; with NCI-H226 lung, greater than 100 µM; in the experiment with NCI-H460 lung, 85.9 µM. The TGI with PC-3 prostate is 83.3 µM; with T-47D breast, greater than 100 µM; in the experiment with U251 CNS it was 89.9 µM.

Regarding `O=C1CC2(CCN(Cc3ccccc3)CC2)C(=O)N1N1CCCCC1`, the TGI in the experiment on 786-0 renal, with CAKI-1 renal, in the experiment with DU-145 prostate, in the experiment on K-562 leukemia, in the experiment on NCI-H226 lung and with NCI-H460 lung was greater than 100 µM in each case. For the same compound, the TGI in the experiment on PC-3 prostate, in the experiment on T-47D breast and in the experiment on U251 CNS was greater than 100 µM each time.

Regarding `O=C(O)COc1c(Cl)cc(Cl)c(C(c2c(Cl)cc(Cl)c(OCC(=O)O)c2Cl)C(Cl)(Cl)Cl)c1Cl`, the TGI in the experiment with 786-0 renal is greater than 100 µM; in the experiment on CAKI-1 renal, greater than 100 µM; in the experiment with DU-145 prostate, greater than 100 µM; in the experiment on K-562 leukemia it was greater than 100 µM; with NCI-H226 lung, 64.1 µM; in the experiment with NCI-H460 lung, 89.7 µM. The values for the TGI with PC-3 prostate, in the experiment with T-47D breast and in the experiment with U251 CNS were greater than 100 µM, greater than 100 µM and 77.4 µM, respectively.

Turning to `O=C1c2cccc3cc([N+](=O)[O-])cc(c23)C(=O)N1c1ccc(OCCN2CCCC2)cc1`, the TGI was 33.4 µM in the experiment on 786-0 renal; greater than 100 µM in the experiment on CAKI-1 renal; greater than 100 µM with DU-145 prostate; 71.3 µM in the experiment with EKVX NSCLC; 24.2 µM with NCI-H226 lung; 21.3 µM with NCI-H460 lung. Besides, the TGI in the experiment with PC-3 prostate was greater than 100 µM; in the experiment with T-47D breast it was greater than 100 µM; with U251 CNS it was 41.3 µM.

Take `CN1N=C(c2ccncc2)OC1c1ccc(C(F)(F)F)cc1` (stereo not drawn): the TGI in the experiment on 786-0 renal, in the experiment with DU-145 prostate, with EKVX NSCLC, in the experiment with K-562 leukemia, in the experiment with NCI-H226 lung and in the experiment on NCI-H460 lung was greater than 100 µM in each case. Also, the TGI in the experiment on PC-3 prostate, in the experiment with T-47D breast and with U251 CNS was greater than 100 µM each time.
